System: HepG2
Test: Hepatoprotective activity against nitrofurantoin-induced cytotoxicity in human HepG2 cells after 2 hrs by MTT assay
Assay type: functional, cell-based
Conditions: HepG2, 2 h

| Compound | EC50 [µM] |
| --- | --- |
| CO[C@H]1O[C@]2(C=C(C)C(=O)O2)C[C@@H]1[C@H]1CC[C@@]2(C)[C@@H]3CC[C@H]4C(C)(C)C(=O)C=C[C@@]45C[C@@]35CC[C@]12C | 123 |
| CC(C)=CC(=O)C[C@@H](C)[C@H]1CC[C@@]2(C)[C@@H]3CC[C@H]4C(C)(C)C(=O)C=C[C@@]45C[C@@]35CC[C@]12C | 109 |
| CC(C)=CC(=O)C[C@@H](C)[C@H]1CC[C@@]2(C)[C@@H]3CC[C@H]4[C@](C)(C(=O)O)[C@@H](O)C[C@H](O)[C@@]45C[C@@]35CC[C@]12C [GARDENOLIC ACID B] | 66.4 |
| COc1cc(C2Oc3cc([C@H]4Oc5cc(O)cc(O)c5C(=O)[C@@H]4O)ccc3OC2CO)ccc1O (some centres undefined) [SILIBININ] | 75.7 |

Source: ChEMBL document CHEMBL1152971, “Cycloartane triterpenoids from Kleinhovia hospita” (J Nat Prod, 2009)
